Assay type in all cases: cell-based
Assay [1] addresses T1, human sphingosine-1-phosphate receptor 1 (S1P1) (Homo sapiens, UniProt P21453). Briefly: β-Arrestin2 recruitment assay (PathHunter), S1P1 CHO-K1 cells. The conditions noted are these: for Emax: efficacy normalized to maximum efficacy of fingolimod, read-out: hS1P1 B-arrestin2 SPAN; for EC50: β-arrestin2 recruitment, read-out: hS1P1 B-arrestin2 pEC50 (converted). In a few lines: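 Agonist-driven β-arrestin2 recruitment measured by β-galactosidase complementation after 60 min compound exposure at 37 °C and 1 h detection at room temperature. Cells: stable CHO-K1 line expressing tagged human S1P1 with EA-β-arrestin2, plated the night before. Data expressed relative to fingolimod.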
In general terms: Recruitment of arrestin is a read-out of receptor activation apart from second messengers.
Target sequence in this assay (P21453 whole entry): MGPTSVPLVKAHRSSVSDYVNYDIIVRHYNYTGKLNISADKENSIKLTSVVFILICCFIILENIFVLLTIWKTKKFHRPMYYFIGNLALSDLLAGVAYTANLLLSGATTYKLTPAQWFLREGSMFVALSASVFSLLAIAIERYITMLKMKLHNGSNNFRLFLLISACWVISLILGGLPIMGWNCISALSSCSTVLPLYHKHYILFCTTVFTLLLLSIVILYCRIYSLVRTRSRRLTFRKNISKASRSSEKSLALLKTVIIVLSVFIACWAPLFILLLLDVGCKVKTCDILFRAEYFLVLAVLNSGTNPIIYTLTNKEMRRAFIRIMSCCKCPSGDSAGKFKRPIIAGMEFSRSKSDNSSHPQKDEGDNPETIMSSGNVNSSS
Target sequence in this assay (P32121 whole entry partner): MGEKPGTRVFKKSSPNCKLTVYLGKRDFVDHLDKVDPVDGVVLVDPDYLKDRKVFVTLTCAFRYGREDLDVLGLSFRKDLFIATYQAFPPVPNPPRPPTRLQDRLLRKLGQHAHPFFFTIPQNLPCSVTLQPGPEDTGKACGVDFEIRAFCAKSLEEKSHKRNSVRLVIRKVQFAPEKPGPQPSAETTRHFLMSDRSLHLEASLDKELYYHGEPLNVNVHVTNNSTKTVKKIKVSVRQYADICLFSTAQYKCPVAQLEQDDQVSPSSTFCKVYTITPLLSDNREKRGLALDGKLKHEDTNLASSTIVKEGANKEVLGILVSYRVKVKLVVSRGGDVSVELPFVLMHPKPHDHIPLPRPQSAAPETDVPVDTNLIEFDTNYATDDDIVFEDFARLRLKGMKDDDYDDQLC

Assay [2] addresses human sphingosine-1-phosphate receptor 3 (S1P3) (Homo sapiens, UniProt Q99500). Briefly: Selectivity: inhibition of cAMP production (HTRF), S1P3 CHO-K1 cells. The procedure:
(§1) Cell Culturing and Assay Plating Cell lines were cultured in AssayComplete™ Media 6 (DiscoverX Corporation, Cat #: 920018GF2) at 37° C. and 5% CO2 in a humidified CO2 and temperature-controlled incubator. To begin assay plating, cells were washed with Dulbecco's phosphate buffered saline (CellGro, Cat #: 21-031-CV) and lifted from the culturing flask by incubation (37° C., 5 min) with CellStripper (Cellgro, Cat #: 25-056-CI). […] Plated cells were incubated overnight at 37° C. and 5% CO2 in a humidified CO2 and temperature-controlled incubator. Detecting Inhibition of cAMP Production
S1P3 and S1P5 Agonist-promoted G-protein responses were determined by measuring changes in intracellular cAMP using the HTRF® cAMP HiRange kit (CisBio, Cat #: 62AM6PEJ) based on time-resolved fluorescence resonance energy transfer (TR-FRET) technology. […] Following a 30-minute room temperature incubation the components of the cAMP HiRange kit were added as per the manufacturer's instructions. After an hour incubation at room temperature, plates were analyzed by a BMG PheraStar microplate reader.
(§2) These values are normalized to fimgolimod, a known agonist of the sphingosine-1-phosphate 3 and 5 receptor or CYM5520, a known agonist of the sphingosine-1-phosphate 2 receptor. The tables also include potency values (pEC50) for modulating discrete receptor-mediated activities (inhibition of cAMP production or inositol monophosphate accumulation).

Assay [3] addresses human sphingosine-1-phosphate receptor 2 (S1P2) (Homo sapiens, UniProt O95136). Briefly: Selectivity: inositol monophosphate production (IP-one), S1P2 CHO-K1 cells. The procedure: as §1
S1P2 Agonist-promoted G-protein responses were determined by measuring changes in intracellular inositol monophosphate using the IP-one TB kit (CisBio, Cat #: 62IPAPEJ) based on time-resolved fluorescence resonance energy transfer (TR-FRET) technology. AssayComplete™ Cell Plating 2 Reagent was removed and replaced with 1× IP-one stimulation buffer (as per manufacturer's instructions) along with test or control compounds at the desired concentrations.
Following a 60-minute incubation at 37° C. and 5% CO2 in a humidified CO2 and temperature-controlled incubator, the components of the IP-one TB kit were added as per the manufacturer's instructions. After an hour incubation at room temperature, plates were analyzed by a BMG PheraStar microplate reader.
as §2

The target in assay [4] is T1, human sphingosine-1-phosphate receptor 1 (S1P1). Briefly: Inhibition of cAMP production (HTRF cAMP HiRange), S1P1 CHO-K1 cells. The conditions noted are these: for Emax: CHO-K1, efficacy normalized to maximum efficacy of fingolimod, read-out: hS1P1 CAMP SPAN; for EC50: read-out: hS1P1 CAMP pEC50 (converted). A digest of the protocol:
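Intracellular cAMP changes read by TR-FRET (HTRF HiRange, 1 h room temperature) after 30 min compound exposure at 37 °C. Cells: overnight-plated CHO-K1 stably expressing tagged human S1P1 with EA-β-arrestin2. Responses normalized to fingolimod.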
Target sequence in this assay (P21453 whole entry): as the sequence (P21453 whole entry) above
On the technique in general: Cyclic AMP is a second messenger, typically raised through Gs and lowered through Gi signalling.

[5] abbreviates: inhibition of cAMP production, S1P1.
Where [6] appears, read: CHO-K1, β-arrestin2 recruitment.
Setting [7] is: inhibition of cAMP production, potency.

The structures appear in SMILES notation.

Sequence of human sphingosine-1-phosphate receptor 3 (S1P3) (Q99500 whole entry): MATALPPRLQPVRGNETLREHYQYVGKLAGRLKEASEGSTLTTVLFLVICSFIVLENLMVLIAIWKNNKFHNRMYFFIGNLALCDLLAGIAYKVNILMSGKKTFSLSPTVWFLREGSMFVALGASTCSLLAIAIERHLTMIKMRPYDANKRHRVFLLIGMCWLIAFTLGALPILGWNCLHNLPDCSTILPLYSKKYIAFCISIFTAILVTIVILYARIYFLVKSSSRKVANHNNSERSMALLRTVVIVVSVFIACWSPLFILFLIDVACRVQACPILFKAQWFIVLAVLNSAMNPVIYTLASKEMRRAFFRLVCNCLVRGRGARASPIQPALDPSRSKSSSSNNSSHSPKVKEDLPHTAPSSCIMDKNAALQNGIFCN
Sequence of human sphingosine-1-phosphate receptor 2 (S1P2) (O95136 whole entry): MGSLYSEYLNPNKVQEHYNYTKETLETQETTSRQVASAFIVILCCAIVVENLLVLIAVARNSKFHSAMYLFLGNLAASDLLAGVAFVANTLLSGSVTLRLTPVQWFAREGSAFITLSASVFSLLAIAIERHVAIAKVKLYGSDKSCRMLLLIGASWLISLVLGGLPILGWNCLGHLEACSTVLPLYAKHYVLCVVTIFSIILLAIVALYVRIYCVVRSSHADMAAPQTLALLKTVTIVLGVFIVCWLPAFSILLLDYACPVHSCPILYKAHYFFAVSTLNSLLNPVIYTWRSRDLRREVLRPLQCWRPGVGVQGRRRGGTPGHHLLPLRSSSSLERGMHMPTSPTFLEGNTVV

For the compound `CCC1(CC)CC(=O)c2cc(-c3nc(-c4ccc5[nH]c(=O)oc5c4)no3)ccc2O1` [Compound 445, 6-(5-(2,2-diethyl-4-oxochroman-6-yl)-1,2,4-oxadiazol-3-yl)benzo[d]oxazol-2(3H)-one], the Emax in assay [1] (CHO-K1) was more than 75%; in assay [2] (CHO-K1, efficacy normalized to maximal efficacy of fimgolimod, read-out: hS1P3 cAMP SPAN), less than 50%; in assay [3] (CHO-K1, efficacy normalized to maximal efficacy of CYM5520, read-out: hS1P2 IP-one SPAN), less than 50%; in assay [4], more than 75%. Besides, the EC50 is less than 10 µM in assay [1] (S1P1); more than 10 µM in assay [2] (inhibition of cAMP production, read-out: hS1P3 cAMP pEC50 (converted)); less than 10 µM in assay [3] (inositol monophosphate accumulation, read-out: hS1P2 IP-one pEC50 (converted)); less than 0.316 µM in assay [4] (setting [5]).
On to `CC(C)n1nnc2cc(-c3nc(-c4cncnc4)no3)ccc21` [Compound 249, 1-(propan-2-yl)-5-[3-(pyrimidin-5-yl)-1,2,4-oxadiazol-5-yl]-1H-1,2,3-benzotriazole], for which the Emax was less than 75% in assay [1] (setting [6]) and more than 75% in assay [4] (inhibition of cAMP production). Besides, the EC50 is more than 10 µM in assay [1] (potency) and more than 0.316 µM in assay [4] (setting [7]).
Taken in the same sequence, the figures for `CCC1(CC)CC(=O)c2cc(-c3nc(-c4ccncc4F)no3)ccc2O1` [Compound 226, 2,2-diethyl-6-(3-(3-fluoropyridin-4-yl)-1,2,4-oxadiazol-5-yl)chroman-4-one] were more than 75%, more than 75%, more than 10 µM and more than 0.316 µM.
On to `Cc1ccccc1-c1cc(-c2ccc3c(c2)nnn3C(C)C)c[nH]1` [Compound 601, 5-[5-(2-methylphenyl)-1H-pyrrol-3-yl]-1-(propan-2-yl)-1H-1,2,3-benzotriazole], for which the figures for the Emax in assay [1] (CHO-K1) and in assay [4] were less than 75% and more than 75%, respectively. In addition, the EC50 is less than 10 µM in assay [1] (S1P1) and more than 0.316 µM in assay [4] (setting [5]).
Taken in the same sequence, the figures for `CCC1(CC)CC(=O)c2cc(-c3nc(-c4ccc5[nH]c(=O)[nH]c5c4)no3)ccc2O1` [Compound 539, 5-(5-(2,2-diethyl-4-oxochroman-6-yl)-1,2,4-oxadiazol-3-yl)-1H-benzo[d]imidazol-2(3H)-one] were less than 75%, less than 75%, less than 10 µM and less than 0.316 µM.
Consider `N#Cc1cc(-c2nnc(-c3ccc4c(c3)CCC(=O)N4)o2)ccc1NCC1CC1` [Compound 475, 2-[(cyclopropyl-methyl)amino]-5-[5-(2-oxo-1,2,3,4-tetrahydroquinolin-6-yl)-1,3,4-oxadiazol-2-yl]benzonitrile], for which the Emax in assay [1] (CHO-K1) was less than 75%; in assay [4] it was more than 75%. Besides, the EC50 in assay [1] (S1P1) was less than 10 µM; in assay [4] (setting [5]), less than 0.316 µM.
The corresponding values for `Cc1ccsc1-c1nc(-c2ccc3c(c2)nnn3CC(C)(C)CO)no1` [Compound 524, 2,2-dimethyl-3-(5-(5-(3-methylthiophen-2-yl)-1,2,4-oxadiazol-3-yl)-1H-benzo[d] [1,2,3]triazol-1-yl)propan-1-ol] are less than 75%, more than 75%, less than 10 µM and less than 0.316 µM.
Regarding `CC(C)Nc1ccc(-c2nc(-c3ccc4c(c3)CCNC4=O)no2)cc1C#N` [Compound 442, 2-(isopropylamino)-5-(3-(1-oxo-1,2,3,4-tetrahydroisoquinolin-6-yl)-1,2,4-oxadiazol-5-yl)benzonitrile], the Emax in assay [1] (CHO-K1) and in assay [4] was more than 75% throughout. The EC50 in assay [1] (S1P1) is less than 10 µM; in assay [4] (setting [5]), less than 0.316 µM.
Turning to `CC(C)(CO)Cn1nnc2cc(-c3noc(-c4cnccc4C(F)(F)F)n3)ccc21` [Compound 529, 2,2-dimethyl-3-(5-(5-(4-(trifluoro-methyl)pyridin-3-yl)-1,2,4-oxadiazol-3-yl)-1H-benzo[d][1,2,3]triazol-1-yl)propan-1-ol], the Emax in assay [1] (CHO-K1) was less than 75%; in assay [4], more than 75%. Further, the results for the EC50 in assay [1] (S1P1) and in assay [4] (setting [5]) were less than 10 µM and more than 0.316 µM, respectively.
Consider `Cc1cccc(-c2noc(-c3ccc4c(c3)nnn4C3CCCCC3)n2)c1` [Compound 11, 1-cyclohexyl-5-[3-(3-methylphenyl)-1,2,4-oxadiazol-5-yl]-1H-1,2,3-benzotriazole], for which the Emax in assay [1] (setting [6]) and in assay [4] (inhibition of cAMP production) was less than 75% in each case. For the same compound, the results for the EC50 in assay [1] (potency) and in assay [4] (setting [7]) were more than 10 µM and more than 0.316 µM, respectively.
As for `CCC1(CC)CC(=O)c2cc(-c3nc(-c4cccnn4)no3)ccc2O1` [Compound 621, 2,2-diethyl-6-(3-(pyridazin-3-yl)-1,2,4-oxadiazol-5-yl)chroman-4-one], the Emax in assay [1] (CHO-K1) and in assay [4] was more than 75% each time. Besides, the figures for the EC50 in assay [1] (S1P1) and in assay [4] (setting [5]) were more than 10 µM and more than 0.316 µM, respectively.
Consider `COc1ccccc1-c1nnc(-c2ccc3c(c2)nnn3C(C)C)s1` [Compound 144, 5-[5-(2-methoxyphenyl)-1,3,4-thiadiazol-2-yl]-1-(propan-2-yl)-1H-1,2,3-benzotriazole], for which the Emax was less than 75% in assay [1] (setting [6]) and more than 75% in assay [4] (inhibition of cAMP production). Besides, the EC50 is less than 10 µM in assay [1] (potency) and more than 0.316 µM in assay [4] (setting [7]).
For `Cc1cncc(-c2nc(-c3ccc4c(c3)nnn4C(C)C)no2)n1` [Compound 229, 3-(1-isopropyl-1H-benzo[d][1,2,3]triazol-5-yl)-5-(6-methyl-pyrazin-2-yl)-1,2,4-oxadiazole], the Emax in assay [1] (setting [6]) and in assay [4] (inhibition of cAMP production) was less than 75% each time. The EC50 in assay [1] (potency) was less than 10 µM; in assay [4] (setting [7]), more than 0.316 µM.
As for `Cc1ccccc1-c1nc(-c2ccc3c(c2)nnn3CC(C)(C)CO)no1` [Compound 505, 2,2-dimethyl-3-(5-(5-(o-tolyl)-1,2,4-oxadiazol-3-yl)-1H-benzo[d][1,2,3]triazol-1-yl)propan-1-ol], the values for the Emax in assay [1] (CHO-K1) and in assay [4] were more than 75% and less than 75%, respectively. Besides, the EC50 was more than 10 µM in assay [1] (S1P1) and more than 0.316 µM in assay [4] (setting [5]).
On to `Cn1cnc2ccc(-c3nnc(-c4ccc(NCC(F)(F)CO)c(C#N)c4)o3)cc21` [Compound 635, 2-[(2,2-difluoro-3-hydroxypropyl)amino]-5-[5-(1-methyl-1H-1,3-benzodiazol-6-yl)-1,3,4-oxadiazol-2-yl]benzonitrile], for which the Emax in assay [1] (CHO-K1) and in assay [4] was less than 75% throughout. Further, the EC50 is less than 10 µM in assay [1] (S1P1) and less than 0.316 µM in assay [4] (setting [5]).
Consider `CC(C)n1nnc2cc(-c3ncc(-c4ccccc4F)s3)ccc21` [Compound 63, 5-(2-fluorophenyl)-2-(1-isopropyl-1H-benzo[d][1,2,3]triazol-5-yl)thiazole], for which the Emax in assay [1] (setting [6]) and in assay [4] (inhibition of cAMP production) was less than 75% in each case. In addition, the EC50 in assay [1] (potency) was more than 10 µM; in assay [4] (setting [7]), less than 0.316 µM.
Take `O=C1CCc2cc(-c3nc(-c4cccnc4)no3)ccc2N1` [Compound 386, 6-[3-(pyridin-3-yl)-1,2,4-oxadiazol-5-yl]-1,2,3,4-tetrahydro-quinolin-2-one]: the results for the Emax in assay [1] (CHO-K1) and in assay [4] were less than 75% and more than 75%, respectively. Also, the EC50 in assay [1] (S1P1) was more than 10 µM; in assay [4] (setting [5]) it was more than 0.316 µM.
The corresponding values for `N#Cc1cc(-c2nnc(-c3ccc4[nH]c(=O)oc4c3)o2)ccc1NCC(F)F` [Compound 488, 2-[(2,2-difluoro-ethyl)amino]-5-[5-(2-oxo-2,3-dihydro-1,3-benzoxazol-6-yl)-1,3,4-oxadiazol-2-yl]benzonitrile] are more than 75%, less than 75%, less than 10 µM and less than 0.316 µM.

The record behind these values is patent US20230114241A1, “METHODS OF TREATING EPILEPSY USING THE SAME” (Trevena, Inc., priority 2019, published 2023).
